Target: T1, KCNQ 2/3 channels (HEK293 cells stably expressing human KCNQ2 and KCNQ3 subunits) (Homo sapiens, UniProt O43525+O43526)
T1 construct: expressed in transfected cells; host or cells: HEK293
Assay: KCNQ2/3 channel activation, thallium flux FLIPR assay with BTC-AM dye
Type: cell-based
Conditions: for Emax: HEK293, maximum response relative to the response produced by 10 μM retigabine (set at 100%), read-out: Max. %; for EC50: HEK293 cells expressing human KCNQ2 and KCNQ3, thallium flux, FLIPR
Outline: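 HEK293 cells stably expressing human KCNQ2/KCNQ3 were loaded with BTC-AM (3 μg/mL, 2 h, RT) and preincubated with compound for 4 min in pH 7.3 gluconate buffer containing 0.1 mM ouabain. Flux was triggered by 6 mM TlNO3/10 mM K2SO4 and read for 3 min; EC50 came from summed responses over basal, with maximum relative to 10 μM retigabine (100%).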

Structure (SMILES)	Emax [%]	EC50 [nM]
O=C(Cc1cccs1)Nn1nc(C(F)(F)F)c2ccccc2c1=O [Example 54, N-[1-oxo-4-(trifluoromethyl)phthalazin-2(1H)-yl]-2-(2-thienyl)acetamide]	84	1000 to 10000
O=C(Cc1ccc(Cl)s1)Nn1nc(C(F)(F)F)c2ccccc2c1=O [Example 55, 2-(5-chloro-2-thienyl)-N-[1-oxo-4-(trifluoromethyl)phthalazin-2(1H)-yl]acetamide]	72	500 to 1000
Cc1ccc(CC(=O)Nn2nc(C(F)(F)F)c3ccccc3c2=O)s1 [Example 56, 2-(5-methyl-2-thienyl)-N-[1-oxo-4-(trifluoromethyl)phthalazin-2(1H)-yl]acetamide]	51	1000 to 10000
O=C(Cc1ccccc1)Nn1nc(C(F)(F)F)c2ccccc2c1=O [Example 57, N-[1-oxo-4-(trifluoromethyl)phthalazin-2(1H)-yl]-2-phenylacetamide]	85	1000 to 10000
O=C(Cc1ccc(Cl)c(F)c1)Nn1nc(C(F)(F)F)c2ccccc2c1=O [Example 59, 2-(4-chloro-3-fluorophenyl)-N-[1-oxo-4-(trifluoromethyl)phthalazin-2(1H)-yl]acetamide]	90	1000 to 10000
CC(C)c1nn(NC(=O)CC23CC4CC(CC(F)(C4)C2)C3)c(=O)c2ccccc12 [Example 60, 2-(3-fluoroadamantan-1-yl)-N-(4-isopropyl-1-oxophthalazin-2(1H)-yl)acetamide]	214	< 100
CC(C)c1nn(NC(=O)CC23CC4CC(CC(O)(C4)C2)C3)c(=O)c2ccccc12 [Example 61, 2-(3-hydroxyadamantan-1-yl)-N-(4-isopropyl-1-oxophthalazin-2(1H)-yl)acetamide]	26	> 10000
CC(C)(C)c1nn(NC(=O)CC2CCCC2)c(=O)c2ccccc12 [Example 62, N-(4-tert-butyl-1-oxophthalazin-2(1H)-yl)-2-cyclopentylacetamide]	149	< 100
CC(C)(C)c1nn(NC(=O)CC(C)(C)c2ccccc2)c(=O)c2ccccc12 [Example 64, N-(4-tert-butyl-1-oxophthalazin-2(1H)-yl)-3-methyl-3-phenylbutanamide]	157	< 100
CC(C)(C)c1nn(NC(=O)Cc2ccc(Cl)cc2)c(=O)c2ccccc12 [Example 65, N-(4-tert-butyl-1-oxophthalazin-2(1H)-yl)-2-(4-chlorophenyl)acetamide]	151	100 to 500
O=C(C[C@@H]1C[C@@H]2CC[C@H]1C2)Nn1nc(C2CCC2)c2ccccc2c1=O [Example 66, 2-[(1S,2S,4R)-bicyclo[2.2.1]hept-2-yl]-N-(4-cyclobutyl-1-oxophthalazin-2(1H)-yl)acetamide]	148	< 100
O=C(C[C@@H]1C[C@@H]2C=C[C@H]1C2)Nn1nc(C2CCC2)c2ccccc2c1=O [Example 67, 2-[(1S,2S,4S)-bicyclo[2.2.1]hept-5-en-2-yl]-N-(4-cyclobutyl-1-oxophthalazin-2(1H)-yl)acetamide]	166	< 100
O=C(Cc1cc(F)cc(F)c1)Nn1nc(C2CCC2)c2ccccc2c1=O [Example 69, N-(4-cyclobutyl-1-oxophthalazin-2(1H)-yl)-2-(3,5-difluorophenyl)acetamide]	138	< 100
O=C(Cc1ccc(Cl)cc1)Nn1nc(C2CCC2)c2ccccc2c1=O [Example 70, 2-(4-chlorophenyl)-N-(4-cyclobutyl-1-oxophthalazin-2(1H)-yl)acetamide]	124	100 to 500
O=C(Cc1ccc(Cl)cc1)Nn1nc(C2CCCC2)c2ccccc2c1=O [Example 72, 2-(4-chlorophenyl)-N-(4-cyclopentyl-1-oxophthalazin-2(1H)-yl)acetamide]	130	< 100
O=C(Cc1cc(F)cc(F)c1)Nn1nc(C2CCCC2)c2ccccc2c1=O [Example 73, N-(4-cyclopentyl-1-oxophthalazin-2(1H)-yl)-2-(3,5-difluorophenyl)acetamide]	142	< 100
O=C(CC12CC3CC(CC(C3)C1)C2)Nn1nc(C2CCCCC2)c2ccccc2c1=O [Example 75, 2-(adamantan-1-yl)-N-(4-cyclohexyl-1-oxophthalazin-2(1H)-yl)acetamide]	243	< 100
O=C(Cc1ccc(Cl)cc1)Nn1nc(C2CCCCC2)c2ccccc2c1=O [Example 76, 2-(4-chlorophenyl)-N-(4-cyclohexyl-1-oxophthalazin-2(1H)-yl)acetamide]	157	100 to 500
O=C(Cc1cc(F)cc(F)c1)Nn1nc(C2CCCCC2)c2ccccc2c1=O [Example 77, N-(4-cyclohexyl-1-oxophthalazin-2(1H)-yl)-2-(3,5-difluorophenyl)acetamide]	145	< 100
COC(=O)c1ccc(-c2nn(NC(=O)Cc3ccc(Cl)cc3)c(=O)c3ccccc23)cc1 [Example 80, methyl 4-(3-{[(4-chlorophenyl)acetyl]amino}-4-oxo-3,4-dihydrophthalazin-1-yl)benzoate]	80	100 to 500
CC(C)(CC(=O)Nn1nc(-c2ccccc2)c2ccccc2c1=O)c1ccccc1 [Example 82, 3-methyl-N-(1-oxo-4-phenylphthalazin-2(1H)-yl)-3-phenylbutanamide]	156	100 to 500
O=C(Cc1ccc(Cl)cc1Cl)Nn1nc(-c2ccccc2)c2ccccc2c1=O [Example 83, 2-(2,4-dichlorophenyl)-N-(1-oxo-4-phenylphthalazin-2(1H)-yl)acetamide]	13	> 10000
CC(C)(CC(=O)Nn1nc(-c2ccc(Br)cc2)c2ccccc2c1=O)c1ccccc1 [Example 85, N-[4-(4-bromophenyl)-1-oxophthalazin-2(1H)-yl]-3-methyl-3-phenylbutanamide]	117	100 to 500
CC1(CC(=O)Nn2nc(-c3ccc(Cl)cc3)c3ccccc3c2=O)CCCC1 [Example 86, N-[4-(4-chlorophenyl)-1-oxophthalazin-2(1H)-yl]-2-(1-methylcyclopentyl)acetamide]	166	< 100
O=C(CC1(C(F)(F)F)CCCC1)Nn1nc(-c2ccc(Cl)cc2)c2ccccc2c1=O [Example 87, N-[4-(4-chlorophenyl)-1-oxophthalazin-2(1H)-yl]-2-[1-(trifluoromethyl)cyclopentyl]acetamide]	104	500 to 1000
CC(C)(CC(=O)Nn1nc(-c2ccc(Cl)cc2)c2ccccc2c1=O)c1ccccc1 [Example 89, N-[4-(4-chlorophenyl)-1-oxophthalazin-2(1H)-yl]-3-methyl-3-phenylbutanamide]	118	100 to 500
O=C(Nn1nc(-c2ccc(Cl)cc2)c2ccccc2c1=O)C(F)c1ccccc1 (centres unmarked) [Example 90, N-[4-(4-chlorophenyl)-1-oxophthalazin-2(1H)-yl]-2-fluoro-2-phenylacetamide]	1	> 10000
O=C(Cc1cccnc1)Nn1nc(-c2ccc(Cl)cc2)c2ccccc2c1=O [Example 93, N-[4-(4-chlorophenyl)-1-oxophthalazin-2(1H)-yl]-2-(pyridin-3-yl)acetamide]	149	1000 to 10000
